Laboratory results from ChEMBL document CHEMBL1129369, “Forskolin carbamates: binding and activation studies with type I adenylyl cyclase” (J Med Chem, 1996).

target: T1, Adenylate cyclase type 1 (Homo sapiens, UniProt Q08828); test: Ability to activate the conversion of [32P] ATP to [32P]-cyclic AMP mediated by adenylate cyclase 1; format: functional; details: not given
Target sequence in this assay (Q08828 whole entry): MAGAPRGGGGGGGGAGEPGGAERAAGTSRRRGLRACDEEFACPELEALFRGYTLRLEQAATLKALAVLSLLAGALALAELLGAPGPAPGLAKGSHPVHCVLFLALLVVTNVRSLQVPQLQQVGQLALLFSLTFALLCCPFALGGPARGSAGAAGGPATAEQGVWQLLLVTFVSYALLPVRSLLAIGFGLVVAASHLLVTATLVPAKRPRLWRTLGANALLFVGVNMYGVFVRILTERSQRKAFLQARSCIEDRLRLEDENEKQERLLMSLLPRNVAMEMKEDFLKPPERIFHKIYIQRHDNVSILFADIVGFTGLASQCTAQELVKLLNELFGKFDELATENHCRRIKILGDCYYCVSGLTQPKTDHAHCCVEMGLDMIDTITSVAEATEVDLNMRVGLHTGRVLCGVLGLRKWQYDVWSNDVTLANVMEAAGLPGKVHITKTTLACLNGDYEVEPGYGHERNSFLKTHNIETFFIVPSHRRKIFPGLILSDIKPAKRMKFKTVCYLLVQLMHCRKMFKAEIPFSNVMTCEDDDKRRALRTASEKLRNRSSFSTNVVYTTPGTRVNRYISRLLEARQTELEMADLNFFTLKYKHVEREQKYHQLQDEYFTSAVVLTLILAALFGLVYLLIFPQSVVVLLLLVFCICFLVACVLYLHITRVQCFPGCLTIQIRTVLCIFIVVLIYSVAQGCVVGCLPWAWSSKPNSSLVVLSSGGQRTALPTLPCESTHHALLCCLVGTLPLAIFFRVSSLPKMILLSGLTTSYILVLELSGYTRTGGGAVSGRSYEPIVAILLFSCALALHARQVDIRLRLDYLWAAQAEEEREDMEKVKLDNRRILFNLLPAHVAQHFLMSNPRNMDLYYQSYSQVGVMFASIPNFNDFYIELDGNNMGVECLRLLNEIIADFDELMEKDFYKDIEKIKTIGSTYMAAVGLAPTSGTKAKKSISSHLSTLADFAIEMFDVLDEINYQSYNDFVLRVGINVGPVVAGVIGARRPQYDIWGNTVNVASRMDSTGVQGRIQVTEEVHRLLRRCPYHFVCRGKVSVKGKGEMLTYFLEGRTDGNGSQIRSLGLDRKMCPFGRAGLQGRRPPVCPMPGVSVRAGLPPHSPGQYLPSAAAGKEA

EC50 [nM]	SMILES
< 2000	C=C[C@@]1(C)CC(=O)[C@]2(O)[C@@]3(C)[C@@H](O)CCC(C)(C)[C@@H]3[C@H](O)[C@H](OC(=O)NCCC)[C@@]2(C)O1
< 2000	C=C[C@@]1(C)CC(=O)[C@]2(O)[C@@]3(C)[C@@H](O)CCC(C)(C)[C@@H]3[C@H](OC(=O)NCCc3ccccc3)[C@H](O)[C@@]2(C)O1
> 2000	C=C[C@@]1(C)CC(=O)[C@]2(O)[C@@]3(C)[C@@H](O)CCC(C)(C)[C@@H]3[C@H](O)[C@H](OC(=O)NCCOC)[C@@]2(C)O1
> 2000	C=CCNC(=O)O[C@H]1[C@H]2C(C)(C)CC[C@H](O)[C@]2(C)[C@@]2(O)C(=O)C[C@](C)(C=C)O[C@]2(C)[C@H]1O
> 2000	C=CCNC(=O)O[C@H]1[C@@H](O)[C@H]2C(C)(C)CC[C@H](O)[C@]2(C)[C@@]2(O)C(=O)C[C@](C)(C=C)O[C@]12C
< 2000	C=C[C@@]1(C)CC(=O)[C@]2(O)[C@@]3(C)[C@@H](O)CCC(C)(C)[C@@H]3[C@H](OC(=O)NCCO)[C@H](OC(C)=O)[C@@]2(C)O1

target: T1, Adenylate cyclase type 1; test: Conversion of [32P] ATP to [32P]-cyclic AMP mediated by adenylate cyclase 1; format: functional; details: not given
Target sequence in this assay (Q08828 whole entry): as above

EC50	SMILES
Indeterminate	C=C[C@@]1(C)CC(=O)[C@]2(O)[C@@]3(C)[C@@H](O)CCC(C)(C)[C@@H]3[C@H](OC(=O)NCCN)[C@H](O)[C@@]2(C)O1

same assay, conditions: read-out: EC50

EC50 [nM]	SMILES
1300	C=C[C@@]1(C)CC(=O)[C@]2(O)[C@@]3(C)[C@@H](O)CCC(C)(C)[C@@H]3[C@H](O)[C@H](OC(=O)NCCC)[C@@]2(C)O1
1100	C=C[C@@]1(C)CC(=O)[C@]2(O)[C@@]3(C)[C@@H](O)CCC(C)(C)[C@@H]3[C@H](OC(=O)NCCc3ccccc3)[C@H](O)[C@@]2(C)O1
1600	C=C[C@@]1(C)CC(=O)[C@]2(O)[C@@]3(C)[C@@H](O)CCC(C)(C)[C@@H]3[C@H](O)[C@H](OC(=O)NCCOC)[C@@]2(C)O1
3500	C=CCNC(=O)O[C@H]1[C@H]2C(C)(C)CC[C@H](O)[C@]2(C)[C@@]2(O)C(=O)C[C@](C)(C=C)O[C@]2(C)[C@H]1O
2400	C=CCNC(=O)O[C@H]1[C@@H](O)[C@H]2C(C)(C)CC[C@H](O)[C@]2(C)[C@@]2(O)C(=O)C[C@](C)(C=C)O[C@]12C
500	C=C[C@@]1(C)CC(=O)[C@]2(O)[C@@]3(C)[C@@H](O)CCC(C)(C)[C@@H]3[C@H](OC(=O)NCCO)[C@H](OC(C)=O)[C@@]2(C)O1

target: T1, Adenylate cyclase type 1; test: (§1) Inhibition of [125 I]6-IHPP-forskolin binding to adenylate cyclase 1; details: not given
Target sequence in this assay (Q08828 whole entry): as above

IC50 [nM]	SMILES
192	C=C[C@@]1(C)CC(=O)[C@]2(O)[C@@]3(C)[C@@H](O)CCC(C)(C)[C@@H]3[C@H](OC(=O)NCCN)[C@H](O)[C@@]2(C)O1
89	C=C[C@@]1(C)CC(=O)[C@]2(O)[C@@]3(C)[C@@H](O)CCC(C)(C)[C@@H]3[C@H](O)[C@H](OC(=O)NCCC)[C@@]2(C)O1
65	C=C[C@@]1(C)CC(=O)[C@]2(O)[C@@]3(C)[C@@H](O)CCC(C)(C)[C@@H]3[C@H](OC(=O)NCCc3ccccc3)[C@H](O)[C@@]2(C)O1
174	C=C[C@@]1(C)CC(=O)[C@]2(O)[C@@]3(C)[C@@H](O)CCC(C)(C)[C@@H]3[C@H](O)[C@H](OC(=O)NCCOC)[C@@]2(C)O1
306	C=CCNC(=O)O[C@H]1[C@H]2C(C)(C)CC[C@H](O)[C@]2(C)[C@@]2(O)C(=O)C[C@](C)(C=C)O[C@]2(C)[C@H]1O
157	C=CCNC(=O)O[C@H]1[C@@H](O)[C@H]2C(C)(C)CC[C@H](O)[C@]2(C)[C@@]2(O)C(=O)C[C@](C)(C=C)O[C@]12C
142	C=C[C@@]1(C)CC(=O)[C@]2(O)[C@@]3(C)[C@@H](O)CCC(C)(C)[C@@H]3[C@H](OC(=O)NCCO)[C@H](OC(C)=O)[C@@]2(C)O1

target: T1, Adenylate cyclase type 1; test: as §1; details: not given
Target sequence in this assay (Q08828 whole entry): as above

IC50 [nM]	SMILES
< 150	C=C[C@@]1(C)CC(=O)[C@]2(O)[C@@]3(C)[C@@H](O)CCC(C)(C)[C@@H]3[C@H](O)[C@H](OC(=O)NCCC)[C@@]2(C)O1
< 150	C=C[C@@]1(C)CC(=O)[C@]2(O)[C@@]3(C)[C@@H](O)CCC(C)(C)[C@@H]3[C@H](OC(=O)NCCc3ccccc3)[C@H](O)[C@@]2(C)O1
> 150	C=C[C@@]1(C)CC(=O)[C@]2(O)[C@@]3(C)[C@@H](O)CCC(C)(C)[C@@H]3[C@H](O)[C@H](OC(=O)NCCOC)[C@@]2(C)O1
> 150	C=CCNC(=O)O[C@H]1[C@H]2C(C)(C)CC[C@H](O)[C@]2(C)[C@@]2(O)C(=O)C[C@](C)(C=C)O[C@]2(C)[C@H]1O
> 150	C=CCNC(=O)O[C@H]1[C@@H](O)[C@H]2C(C)(C)CC[C@H](O)[C@]2(C)[C@@]2(O)C(=O)C[C@](C)(C=C)O[C@]12C
< 150	C=C[C@@]1(C)CC(=O)[C@]2(O)[C@@]3(C)[C@@H](O)CCC(C)(C)[C@@H]3[C@H](OC(=O)NCCO)[C@H](OC(C)=O)[C@@]2(C)O1

target: T1, Adenylate cyclase type 1; test: Maximum stimulation activity measured with 100 uM forskolin mediated by adenylate cyclase 1; format: functional; details: not given
Target sequence in this assay (Q08828 whole entry, looked up): as the sequence (Q08828 whole entry) above

Activity [%]	SMILES
101	C=C[C@@]1(C)CC(=O)[C@]2(O)[C@@]3(C)[C@@H](O)CCC(C)(C)[C@@H]3[C@H](O)[C@H](OC(=O)NCCC)[C@@]2(C)O1
72	C=C[C@@]1(C)CC(=O)[C@]2(O)[C@@]3(C)[C@@H](O)CCC(C)(C)[C@@H]3[C@H](OC(=O)NCCc3ccccc3)[C@H](O)[C@@]2(C)O1
97	C=C[C@@]1(C)CC(=O)[C@]2(O)[C@@]3(C)[C@@H](O)CCC(C)(C)[C@@H]3[C@H](O)[C@H](OC(=O)NCCOC)[C@@]2(C)O1
94	C=CCNC(=O)O[C@H]1[C@H]2C(C)(C)CC[C@H](O)[C@]2(C)[C@@]2(O)C(=O)C[C@](C)(C=C)O[C@]2(C)[C@H]1O
102	C=CCNC(=O)O[C@H]1[C@@H](O)[C@H]2C(C)(C)CC[C@H](O)[C@]2(C)[C@@]2(O)C(=O)C[C@](C)(C=C)O[C@]12C
57	C=C[C@@]1(C)CC(=O)[C@]2(O)[C@@]3(C)[C@@H](O)CCC(C)(C)[C@@H]3[C@H](OC(=O)NCCO)[C@H](OC(C)=O)[C@@]2(C)O1
